Like-named read-outs stand apart in the source and are kept apart here. Where a SMILES comes first, the peptide text is derived from it. Bridges are numbered along the chain shown (N, C = ends). Where no end group is shown, it is not given here. [ ]: non-standard residue; d: D form. S5 = C=CCCC[C@](C)(N)C(=O)O

Assay [1] has as its target T1, RXFP3 (Homo sapiens, UniProt Q9NSD7).
T1 construct: expressed in transfected cells; host or cells: CHO-K1
T1 sequence (Q9NSD7 1-469): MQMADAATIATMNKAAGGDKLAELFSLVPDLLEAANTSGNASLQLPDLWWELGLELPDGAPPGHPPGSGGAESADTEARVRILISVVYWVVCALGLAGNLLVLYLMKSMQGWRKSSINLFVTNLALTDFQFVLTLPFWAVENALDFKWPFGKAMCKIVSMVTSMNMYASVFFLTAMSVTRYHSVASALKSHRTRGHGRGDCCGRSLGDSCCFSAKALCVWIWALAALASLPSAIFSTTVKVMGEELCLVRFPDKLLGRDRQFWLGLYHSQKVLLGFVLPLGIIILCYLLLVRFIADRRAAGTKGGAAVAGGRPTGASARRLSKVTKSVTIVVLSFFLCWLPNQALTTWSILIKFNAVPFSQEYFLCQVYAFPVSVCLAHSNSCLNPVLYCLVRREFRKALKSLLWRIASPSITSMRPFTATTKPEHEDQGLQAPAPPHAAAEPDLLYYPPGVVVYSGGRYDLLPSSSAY
As to the kind of experiment: Competition binding assay with Eu-labelled R3 B1-22R on CHO-K1 cells stably expressing RXFP3. As to conditions: read-out: pKi [logM] (converted). The procedure:
Determination of binding affinity in this study was carried out as previously described. Briefly, CHO-K1 cells stably expressing RXFP3 [38] were treated with 5 nM Eu-labelled R3 B1-22R with increasing concentrations of novel analogues. Fluorescence measurement were recorded with 340 nm excitation and 614 nm emission wavelengths. Assays were conducted in triplicates and independently repeated at least three times. […] Statistical analyses were conducted using 1-way ANOVA with uncorrected Fisher’s least square difference in GraphPad Prism 8.0.
(§1) To determine their binding affinity, the ability of increasing concentration of analogues to compete with europium labelled R3 B1-22R were measured using CHO cells stably expressing RXFP3 [37]. Their potency at RXFP3 was measured by inhibition of cAMP accumulation induced by forskolin, as RXFP3 couples to an inhibitory G-protein.

The target of assay [2] is T1, RXFP3. Nature of the assay: cAMP activity assay: inhibition of forskolin-induced cAMP accumulation in CHO-K1 cells stably expressing RXFP3. As to conditions: for EC50: CHO-K1 cells stably expressing RXFP3, inhibition of cAMP accumulation stimulated by 5 μM forskolin, mean ± SEM, triplicates, three independent experiments. The format is cell-based. The procedure: CHO-KI cells stably expressing RXFP3 were used to study the ability of the novel analogues to inhibit forskolin-induced cAMP accumulation. Assays were conducted as previously described. Briefly, 5 μM forskolin was used to stimulate the cells and increasing concentrations of the novel analogues were added to measure the dose-dependent reduction in the cAMP response via activation of the Gi/o-coupled RXFP3. Each analogue was tested in triplicates and each experiment was independently repeated three times. Data are presented as mean ± SEM and were analysed using GraphPad Prism 8.0. Statistical analyses were conducted using 1-way ANOVA and uncorrected Fisher’s least square difference.
as §1

On to `CC[C@H](C)[C@H](NC(=O)[C@H](Cc1ccccc1)NC(=O)C(C)(C)NC(=O)[C@H](CCCNC(=N)N)NC(=O)CNC(=O)[C@H](CO)NC(C)=O)C(=O)N[C@@H](CCCNC(=N)N)C(=O)NC(C)(C)C(=O)N[C@H](C(=O)N[C@H](C(=O)N[C@@H](Cc1ccccc1)C(=O)N[C@H](C(=O)N[C@@H](CO)C(=O)NCC(=O)NCC(=O)N[C@@H](CO)C(=O)N[C@@H](CCCNC(=N)N)C(=O)N[C@@H](Cc1c[nH]c2ccccc12)C(=O)O)[C@@H](C)O)[C@@H](C)CC)C(C)C` [Analogue 1] (HELM PEPTIDE1{[ac].S.G.R.[Aib].F.I.R.[Aib].V.I.F.T.S.G.G.S.R.W}$$$$V2.0), for which, at RXFP3 [1] (SEM), the Ki was 0.562 µM. At RXFP3 [2] (SEM), this molecule gave an EC50 of 0.0676 µM.
Take `CC[C@H](C)[C@H](NC(=O)[C@H](Cc1ccccc1)NC(=O)C(C)(C)NC(=O)[C@H](CCCNC(=N)N)NC(=O)CNC(=O)[C@@H](N)CO)C(=O)N[C@@H](CCCNC(=N)N)C(=O)NC(C)(C)C(=O)N[C@H](C(=O)N[C@H](C(=O)N[C@@H](Cc1ccccc1)C(=O)N[C@H](C(=O)NC(C)(C)C(=O)NCC(=O)NCC(=O)N[C@@H](CO)C(=O)N[C@@H](CCCNC(=N)N)C(=O)N[C@@H](Cc1c[nH]c2ccccc12)C(=O)O)[C@@H](C)O)[C@@H](C)CC)C(C)C` [Analogue 7] (HELM PEPTIDE1{S.G.R.[Aib].F.I.R.[Aib].V.I.F.T.[Aib].G.G.S.R.W}$$$$V2.0): the Ki on RXFP3 [1] (SEM) was 1.12 µM. The same molecule had a half-maximal effective concentration (EC50) at RXFP3 [2] greater than 10 µM. Also, the “maximum cAMP accumulation inhibition” value at RXFP3 [2] (at the highest concentration tested, CHO-K1 cells expressing RXFP3, forskolin-stimulated (Figure 3)) was ~ 50%.
For the molecule `C=CCCC[C@](C)(NC(=O)[C@H](CCCNC(=N)N)NC(=O)CNC(=O)[C@H](CO)NC(C)=O)C(=O)N[C@@H](Cc1ccccc1)C(=O)N[C@H](C(=O)N[C@@H](CCCNC(=N)N)C(=O)N[C@@](C)(CCCC=C)C(=O)N[C@H](C(=O)N[C@H](C(=O)N[C@@H](Cc1ccccc1)C(=O)N[C@H](C(=O)N[C@@H](CO)C(=O)NCC(=O)NCC(=O)N[C@@H](CO)C(=O)N[C@@H](CCCNC(=N)N)C(=O)N[C@@H](Cc1c[nH]c2ccccc12)C(=O)O)[C@@H](C)O)[C@@H](C)CC)C(C)C)[C@@H](C)CC` [Analogue 11] (HELM PEPTIDE1{[ac].S.G.R.[C=CCCC[C@](C)(N[*:1])C(=O)[*:2]].F.I.R.[C=CCCC[C@](C)(N[*:1])C(=O)[*:2]].V.I.F.T.S.G.G.S.R.W}$$$$V2.0), at RXFP3 [1] (SEM), the Ki was 0.933 µM. This molecule gave an EC50 on RXFP3 [2] (SEM) of 0.0417 µM.
`CC[C@H](C)[C@@H]1NC(=O)[C@H](Cc2ccccc2)NC(=O)[C@@H](NC(=O)[C@H](CCCNC(=N)N)NC(=O)CNC(=O)[C@@H](N)CO)CSCc2cccc(c2)CSC[C@@H](C(=O)N[C@H](C(=O)N[C@H](C(=O)N[C@@H](Cc2ccccc2)C(=O)N[C@H](C(=O)N[C@@H](CO)C(=O)NCC(=O)NCC(=O)N[C@@H](CO)C(=O)N[C@@H](CCCNC(=N)N)C(=O)N[C@@H](Cc2c[nH]c3ccccc23)C(=O)O)[C@@H](C)O)[C@@H](C)CC)C(C)C)NC(=O)[C@H](CCCNC(=N)N)NC1=O` [Analogue 16] (HELM PEPTIDE1{S.G.R.C.F.I.R.C.V.I.F.T.S.G.G.S.R.W}|CHEM1{[c1cc(C[*:1])cc(C[*:2])c1]}$PEPTIDE1,CHEM1,4:R3-1:R1|PEPTIDE1,CHEM1,8:R3-1:R2$$$V2.0): the Ki at RXFP3 [1] (SEM) is 1 µM. This molecule also had a 50% effective concentration (EC50) at RXFP3 [2] (SEM) of 1.05 µM.
Regarding `CC[C@H](C)[C@@H]1NC(=O)[C@H](Cc2ccccc2)NC(=O)[C@@H](NC(=O)[C@H](CCCNC(=N)N)NC(=O)CNC(=O)[C@@H](N)CO)CSCC(=O)CSC[C@@H](C(=O)N[C@H](C(=O)N[C@H](C(=O)N[C@@H](Cc2ccccc2)C(=O)N[C@H](C(=O)N[C@@H](CO)C(=O)NCC(=O)NCC(=O)N[C@@H](CO)C(=O)N[C@@H](CCCNC(=N)N)C(=O)N[C@@H](Cc2c[nH]c3ccccc23)C(=O)O)[C@@H](C)O)[C@@H](C)CC)C(C)C)NC(=O)[C@H](CCCNC(=N)N)NC1=O` [Analogue 14] (HELM PEPTIDE1{S.G.R.C.F.I.R.C.V.I.F.T.S.G.G.S.R.W}|CHEM1{[O=C(C[*:1])C[*:2]]}$PEPTIDE1,CHEM1,4:R3-1:R1|PEPTIDE1,CHEM1,8:R3-1:R2$$$V2.0), at RXFP3 [1], the Ki was greater than 10 µM. This molecule also showed a concentration giving a half-maximal response (EC50) at RXFP3 [2] (SEM) of 6.17 µM.
For `CC[C@H](C)[C@H](NC(=O)[C@H](Cc1ccccc1)NC(=O)C(C)(C)NC(=O)[C@H](CCCNC(=N)N)NC(=O)CNC(=O)[C@H](CO)NC(C)=O)C(=O)N[C@@H](CCCNC(=N)N)C(=O)NC(C)(C)C(=O)NC(C)(C)C(=O)N[C@H](C(=O)N[C@@H](Cc1ccccc1)C(=O)NC(C)(C)C(=O)N[C@@H](CO)C(=O)NCC(=O)NCC(=O)N[C@@H](CO)C(=O)N[C@@H](CCCNC(=N)N)C(=O)N[C@@H](Cc1c[nH]c2ccccc12)C(=O)O)[C@@H](C)CC` [Analogue 10] (HELM PEPTIDE1{[ac].S.G.R.[Aib].F.I.R.[Aib].[Aib].I.F.[Aib].S.G.G.S.R.W}$$$$V2.0), in that order: greater than 10 µM and 3.24 µM.
As for `CC[C@H](C)[C@@H]1NC(=O)[C@H](Cc2ccccc2)NC(=O)[C@@H](NC(=O)[C@H](CCCNC(=N)N)NC(=O)CNC(=O)[C@H](CO)NC(C)=O)CSCc2cccc(c2)CSC[C@@H](C(=O)N[C@H](C(=O)N[C@H](C(=O)N[C@@H](Cc2ccccc2)C(=O)N[C@H](C(=O)N[C@@H](CO)C(=O)NCC(=O)NCC(=O)N[C@@H](CO)C(=O)N[C@@H](CCCNC(=N)N)C(=O)N[C@@H](Cc2c[nH]c3ccccc23)C(=O)O)[C@@H](C)O)[C@@H](C)CC)C(C)C)NC(=O)[C@H](CCCNC(=N)N)NC1=O` [Analogue 17] (HELM PEPTIDE1{[ac].S.G.R.C.F.I.R.C.V.I.F.T.S.G.G.S.R.W}|CHEM1{[c1cc(C[*:1])cc(C[*:2])c1]}$PEPTIDE1,CHEM1,5:R3-1:R1|PEPTIDE1,CHEM1,9:R3-1:R2$$$V2.0), the Ki on RXFP3 [1] (SEM) is 1.05 µM. This molecule also had an EC50 on RXFP3 [2] (SEM) of 0.851 µM.
Turning to `CC[C@H](C)[C@H](NC(=O)[C@H](Cc1ccccc1)NC(=O)C(C)(C)NC(=O)[C@H](CCCNC(=N)N)NC(=O)CNC(=O)[C@@H](N)CO)C(=O)N[C@@H](CCCNC(=N)N)C(=O)NC(C)(C)C(=O)NC(C)(C)C(=O)N[C@H](C(=O)N[C@@H](Cc1ccccc1)C(=O)N[C@H](C(=O)N[C@@H](CO)C(=O)NCC(=O)NCC(=O)N[C@@H](CO)C(=O)N[C@@H](CCCNC(=N)N)C(=O)N[C@@H](Cc1c[nH]c2ccccc12)C(=O)O)[C@@H](C)O)[C@@H](C)CC` [Analogue 3] (HELM PEPTIDE1{S.G.R.[Aib].F.I.R.[Aib].[Aib].I.F.T.S.G.G.S.R.W}$$$$V2.0), on RXFP3 [2] (SEM), the EC50 was 0.0912 µM.
In the case of “RAAPYGVRLSGREFIRAVIFTSGGSRW [H3 B-chain, reference compound]”, the Ki on RXFP3 [1] (SEM) is 1.23 µM.
On the same count and under the same terms, then `CC[C@H](C)[C@@H]1NC(=O)[C@H](Cc2ccccc2)NC(=O)[C@@](C)(NC(=O)[C@H](CCCNC(=N)N)NC(=O)CNC(=O)[C@H](CO)NC(C)=O)CCCC=CCCC[C@@](C)(C(=O)N[C@H](C(=O)N[C@H](C(=O)N[C@@H](Cc2ccccc2)C(=O)N[C@H](C(=O)N[C@@H](CO)C(=O)NCC(=O)NCC(=O)N[C@@H](CO)C(=O)N[C@@H](CCCNC(=N)N)C(=O)N[C@@H](Cc2c[nH]c3ccccc23)C(=O)O)[C@@H](C)O)[C@@H](C)CC)C(C)C)NC(=O)[C@H](CCCNC(=N)N)NC1=O` [Ac-R3B10-27 [13/17 HC], reference compound] (Ac-SGR[S5]FIR[S5]VIFTSGGSRW-OH; staple 4-8), with 0.0417 µM.
The molecule `CC[C@H](C)[C@H](NC(=O)[C@H](Cc1ccccc1)NC(=O)C(C)(C)NC(=O)[C@H](CCCNC(=N)N)NC(=O)CNC(=O)[C@@H](N)CO)C(=O)N[C@@H](CCCNC(=N)N)C(=O)NC(C)(C)C(=O)N[C@H](C(=O)N[C@H](C(=O)N[C@@H](Cc1ccccc1)C(=O)NC(C)(C)C(=O)N[C@@H](CO)C(=O)NCC(=O)NCC(=O)N[C@@H](CO)C(=O)N[C@@H](CCCNC(=N)N)C(=O)N[C@@H](Cc1c[nH]c2ccccc12)C(=O)O)[C@@H](C)CC)C(C)C` [Analogue 5] (HELM PEPTIDE1{S.G.R.[Aib].F.I.R.[Aib].V.I.F.[Aib].S.G.G.S.R.W}$$$$V2.0) gave an EC50 at RXFP3 [2] of 1.02 µM.

As usually defined, the EC50 is the concentration giving half of the maximal effect. Lower therefore signals a more potent agent.

The values above are taken from article PMC7602263, “Exploring the Use of Helicogenic Amino Acids for Optimising Single Chain Relaxin-3 Peptide Agonists” (Biomedicines, 2020).
